Measured values published in paper PMC6412019, “Discovery of NV-5138, the first selective Brain mTORC1 activator” (Scientific Reports, 2019).

Experiments:
[1] = cited from earlier work
[2] = target: T1, Sestrin2/GATOR2 interaction (Homo sapiens, UniProt P58004); assay: Sestrin2/GATOR2 interaction in intact flag-WDR24 HEK-293T cells; format: cell-based; settings: leucine-starved 50 min, compound 10 min
T1 construct: expressed in transfected cells; host or cells: HEK-293T stably expressing Flag-WDR24; Sestrin2 and the other GATOR2 subunits endogenous
T1 sequence (P58004 1-480): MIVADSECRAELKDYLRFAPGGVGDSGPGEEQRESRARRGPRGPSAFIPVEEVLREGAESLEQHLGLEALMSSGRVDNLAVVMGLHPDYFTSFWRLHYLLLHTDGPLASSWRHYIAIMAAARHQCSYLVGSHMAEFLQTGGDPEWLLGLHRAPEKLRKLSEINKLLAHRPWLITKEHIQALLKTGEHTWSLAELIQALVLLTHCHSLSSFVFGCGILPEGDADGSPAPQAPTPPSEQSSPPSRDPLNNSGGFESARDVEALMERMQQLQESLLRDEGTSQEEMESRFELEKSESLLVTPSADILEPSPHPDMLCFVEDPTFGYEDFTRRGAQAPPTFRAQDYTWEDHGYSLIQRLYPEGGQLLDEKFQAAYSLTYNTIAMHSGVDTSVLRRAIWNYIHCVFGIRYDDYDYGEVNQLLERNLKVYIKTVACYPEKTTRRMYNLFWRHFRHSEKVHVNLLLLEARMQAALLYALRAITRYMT
Protocol: Expression of flag-WDR24 allows for immunoprecipitation of the Sestrin2/GATOR2 complex from amino acid-starved cells with an anti-flag antibody. […] Finally, to determine whether Sestrins and the GATOR pathway are required for NV-5138 activity, HEK-293T cells null for all three Sestrin isoforms or the GATOR1 component Nprl3 were obtained.
All cell lines were cultured in DMEM supplemented with 10% FBS and maintained at 37 °C and 5% CO2. HEK-293T cells stably expressing Flag-WDR24 was generated as previously described. […] Details of reagent used for cell culture can be found in Supplementary Information.
Cell lysates were prepared as previously described. Lysates were cleared by centrifugation at 13,200 rpm at 4 °C for 8 min. For anti-FLAG IPs, the FLAG-M2 affinity gel was added to approximately 2 mg of lysates and incubated with rotation for 3 h at 4 °C. Following IP, the beads were washed one time with Triton wash buffer containing 500 mM NaCl. […] After compound incubation, IPs were collected by centrifugation. Immunoprecipitated proteins were denatured and, resolved by SDS-PAGE. Membranes were imaged using the LI-COR imaging system. Reagents and antibodies used are listed in Supplementary Information.

[3] = Pharmacokinetic analysis in rats; format: in vivo, rat
Protocol: To determine oral bioavailability, male SD rats were dosed I.V at 1 mg/kg and PO at 5 mg/kg with NV-5138 in 0.5% MC/0. 1% Tween80 (n = 3 per time point per group). Rats were fasted overnight for PO group and were given free access to food and water for IV group. After dosing, tail-vein blood was collected at the indicated time points into K2EDTA tubes and centrifuged at 2,000 g for 5 min to collect plasma. To measure levels of NV-5138 in the brain and plasma, rats were dosed PO at 160 mg/kg (n = 5), sacrificed 1 h after dosing via decapitation and trunk blood and one hemisphere of the brain was collected. Plasma was combined with acetonitrile containing pregabalin as an internal standard and centrifuged, brain and heart samples were homogenized directly into acetonitrile. Levels of NV-5138 were quantified via LC-MS/MS. WinNonlin V 6.2 statistics software (Pharsight Corporation, California, USA) was used to generate pharmacokinetics parameters using non-compartmental model.

Row | Structure (SMILES) | cerebrospinal fluid (CSF) levels as fraction of plasma concentrations [1] | disruption of GATOR2-bound Sestrin2 in intact cells [2] | bioavailability ([3]; male, SD, rat, plasma, oral, 5 mg/kg, male SD rats, IV 1 mg/kg and PO 5 mg/kg) [%] | half-life ([3]; male, SD, rat, plasma, other: intravenous and oral, rats, intravenous and oral dosing, read-out: elimination half-life in plasma (converted)) [h] | brain versus plasma exposure ([3]; rats, 160 mg/kg PO, 160 mg/kg)
1 | CC(C)C[C@H](N)C(=O)O [Leucine, L-leucine, reference compound] | 5–10% | – | – | – | –
2 | CC(C)(C[C@H](N)C(=O)O)C(F)F [NV-5138, (S)-2-amino-5,5-difluoro-4,4-dimethylpentanoic acid] | – | resulted in disruption of GATOR2-bound Sestrin2 | 100 | ~3 | brain and plasma concentrations of NV-5138 are equal
